Values of other authors, collected in US6365180B1, “Oral liquid compositions” (priority 1998, dated 2002).

Settings: enteric coated tablet versus aqueous solution

In the case of `O=C(O)Cc1ccccc1Nc1c(Cl)cccc1Cl` [sodium diclofenac], the oral bioavailability is listed as “more orally bioavailable from an enteric coated tablet than from an aqueous solution”.
